Test results: publication PMC8950706, “Influence of Substitutions in the Binding Motif of Proline-Rich Antimicrobial Peptide ARV-1502 on 70S Ribosome Binding and Antimicrobial Activity” (International Journal of Molecular Sciences, 2022)
Converted amounts (≈) assume the structure as drawn. Marks after values point to notes of the source that are not given here. Square brackets hold non-standard residues; d marks the D form. Ends that are not written are not given here. Peptide text beside a SMILES is read from it. Ac6c = NC1(C(=O)O)CCCCC1

Columns and labels:
E. coli BW25113 = assay: MIC, liquid broth micro dilution, wild type; assay type: cell-based, Escherichia coli; details: for Minimal Inhibitory Concentration, 25% MHB2, wt / Minimal Inhibitory Concentration, 33% TSB, wt: BW25113, 20 h
Description: (§1) MIC values were determined using a liquid broth micro dilution assay in sterile 96-well plates (polystyrene F-bottom, Greiner Bio-One GmbH) and a total volume of 100 μL per well. Aqueous peptide solutions (10 g/L) were serially twofold diluted in 25% Mueller-Hinton broth 2 (25% MBH2) or 33% tryptic soy broth (33% TSB) starting at a peptide concentration of 128 mg/L (50 μL/well). Overnight cultures of bacteria grown in 25% MHB2 (or 33% TSB) were diluted 30-fold in 25% MHB2 (or 33% TSB). After an incubation period of 4 h (37 °C, 200 rpm), cells were diluted to 1.5 × 10^7 cfu/mL, based on a McFarland test, and 50 μL were added to each well (final concentration of 7.5 × 10^6 […]). The plates were incubated (37 °C, 20 h) and the optical density was recorded at 595 nm using a microplate reader ([…]^TM, Beckmann Coulter). The MIC was defined as the lowest peptide concentration preventing visible bacterial growth.

E. coli 70S ribosome [1] = assay: Competitive FP binding screening assay with Cf-ARV-1502 (relative FP); design: species or system E. coli BW25113; details: for Inhibition of Cf-ARV-1502 binding to the 70S ribosome (in words): Figure 3: peptide concentration 1.2 µmol/L; for Ribosome Binding (%): competitive ribosome binding against Cf-ARV-1502 (relative FP; values match 1.2 µmol/L peptide), low value = strong competition
Description: E. coli 70S ribosomes were prepared using a previously described protocol that was slightly modified. Briefly, E. coli BW25113 was cultivated in Luria-Bertani (LB) medium and cells were harvested after reaching an optical density of ~4 at 600 nm by centrifugation (5000× g, 15 min, 4 °C, Rotor JLA 8.100, Avanti J-20 XP, Beckmann Coulter, Krefeld, Germany). The cell pellets were frozen and stored at −80 °C. Cells were resuspended in ribosome buffer (2 mL/g cells; 20 mmol/L HEPES-KOH, 6 mmol/L MgCl2, 30 mmol/L NH4Cl, 4 mmol/L 2-mercaptoethanol, pH 7.6). Lysozyme (0.25 g/L cell suspension) was added, and the mixture was incubated on ice for 30 min. Cells were disrupted using the bead mill homogenizer FastPrep-24™ 5G (40 s, 4 m/s, 6 cycles, MP Biomedicals Germany GmbH, Eschwege, Germany) and zirconia/silica beads (0.1 mm diameter). The lysate was centrifuged (1500× g, 5 min, 4 °C, Rotor S4180, Allegra 21R, Beckmann Coulter) and the supernatant was incubated with DNase (5 U/mL) on ice for 60 min. The cell debris was removed by two centrifugation steps (16,000× g, 30 min, 4 °C followed by 32,000× g, 60 min, 4 °C, Rotor JA 30.50 Ti, Avanti J-30I, Beckmann Coulter). The ribosome was pelleted by ultracentrifugation (165,000× g, 17 h, 4 °C, Rotor 70 Ti, Optima LE-80K, Beckmann Coulter), resuspended in ribosome buffer (0.1 mL/g pellet), and stored at −80 °C. The ribosome concentration was determined by recording the absorbance of RNA at 260 nm (NanoPhotometer NP80, Implen GmbH, München, Germany) assuming that 1 AU corresponds to a ribosome concentration of 28 nmol/L. The molecular weight of the E. coli 70S ribosome was assumed to be 2.3 MDa.
E. coli 70S ribosomes and Cf-ARV-1502 were incubated with four different concentrations of unlabeled peptides chosen based on the IC50 curves of reference peptide ARV-1502. Each peptide was diluted in ribosome buffer to obtain a concentration of 4.8 µmol/L and transferred to a 384-well-plate. Peptides were then twofold serially diluted in four steps from 4.8 to 0.6 µmol/L (20 µL). The ribosome extract was diluted in ribosome buffer to reach a concentration of 2 µmol/L and 10 µL were added to each well to obtain a final ribosome concentration of 0.5 µmol/L. Plates were centrifuged (2 min, 500× g, Rotor S2096, Allegra^TM 21R, Beckmann Coulter) and incubated at 28 °C for 90 min. Cf-labeled ARV-1502 was added (10 µL; final concentration of 20 nmol/L) and the plates were again centrifuged and incubated (28 °C, 90 min). After incubation, fluorescence polarization was recorded on a […]^TM microplate reader (λex = 485 nm, λem = 535 nm).
On each plate 12 minimum (30 µL ribosome buffer and 10 µL Cf-ARV-1502) and 12 maximum (20 µL ribosome buffer, 10 µL ribosome solution and 10 µL Cf-ARV-1502) control samples were added. Fluorescence polarization of screening samples was normalized to the fluorescence polarization of these control samples. All screening samples were measured in triplicates and the whole experiment was repeated once on another day.

[2] = system: E. coli BW25113 ∆sbmA ∆mdtM; assay type: cell-based, Escherichia coli; details: ∆sbmA ∆mdtM compared with ∆sbmA
Description: as §1

E. coli 70S ribosome [3] = assay: Cell-free GFP expression assay (in vitro translation); assay type: biochemical; details: for In Vitro Translation (%): GFP expression remaining relative to control, concentration not given (higher concentration 50 µmol/L); for Reduction of GFP expression, 50 µmol/L peptide: cell-free expression, peptide-to-ribosome ratio of 25, GFP fluorescence, 37 °C
From the text: Possible effects of ARV-1502 and its substituted analogs on the in vitro translation of the green fluorescent protein (GFP) were probed using the NEB PureExpress Delta RF123 Kit (New England Biolabs, Ipswich, MA, USA). The sfGFP DNA template was amplified from pY71sfGFP plasmid by PCR introducing an UAA stop codon. Release factor 1 (RF1) was 50fold diluted in Pure System Buffer (PSB) containing magnesium acetate (1 mol/L), monopotassium phosphate (0.5 mol/L, pH 7.3), potassium glutamate (1 mol/L), NH4Cl (1 mol/L), calcium chloride (0.5 mol/L), spermidine (1 mol/L), putrescine (0.1 mol/L), and DTT (0.1 mol/L). Each reaction used 35 ng of sfGFP template. Peptides were added at a final concentration of 5 µmol/L and 50 µmol/L. The reaction was started by adding Kit solutions A (2 µL) and B (1.5 µL), diluted RF1 (0.5 µL), sfGFP template (0.25 µL or water as negative control), PSB (0.25 µL), and peptide (0.5 µL or water), mixed, transferred into a black 384-well plate (flat bottom, Greiner Bio-One GmbH), and incubated (37 °C, 2 h). The fluorescence was recorded every 10 min (λexc = 485 nm, λem = 535 nm) in a microplate reader (Gemini EM, Molecular Devices LLC, San Jose, CA, USA).

Row | Compound | MIC / activity against E. coli (E. coli BW25113; medium not given) | Inhibition of Cf-ARV-1502 binding to the 70S ribosome (in words) (E. coli 70S ribosome [1]) | Effect of the additional mdtM knockout on antibacterial activity [2] | In Vitro Translation (%) (E. coli 70S ribosome [3]) | Reduction of GFP expression, 50 µmol/L peptide (E. coli 70S ribosome [3]) | MIC (µg/mL), Table 3 (E. coli BW25113; BW25113, 4 h) | Minimal Inhibitory Concentration, 25% MHB2, wt (E. coli BW25113) | Minimal Inhibitory Concentration, 33% TSB, wt (E. coli BW25113) | Ribosome Binding (%) (E. coli 70S ribosome [1]) | MIC / activity against E. coli (E. coli BW25113; BW25113, 4 h)
1 | 6: Chex-RPDDPRPYLPRPRPPRPVR-NH2 ([Ac6c]RPDDPRPYLPRPRPPRPVR-NH2; N-terminus assumed; SMILES CC(C)C[C@H](NC(=O)[C@H](Cc1ccc(O)cc1)NC(=O)[C@@H]1CCCN1C(=O)[C@H](CCCNC(=N)N)NC(=O)[C@@H]1CCCN1C(=O)[C@H](CC(=O)O)NC(=O)[C@H](CC(=O)O)NC(=O)[C@@H]1CCCN1C(=O)[C@H](CCCNC(=N)N)NC(=O)C1(N)CCCCC1)C(=O)N1CCC[C@H]1C(=O)N[C@@H](CCCNC(=N)N)C(=O)N1CCC[C@H]1C(=O)N[C@@H](CCCNC(=N)N)C(=O)N1CCC[C@H]1C(=O)N1CCC[C@H]1C(=O)N[C@@H](CCCNC(=N)N)C(=O)N1CCC[C@H]1C(=O)N[C@H](C(=O)N[C@@H](CCCNC(=N)N)C(N)=O)C(C)C) [Peptide 6] | low activity against E. coli | inhibited Cf-ARV-1502 |  |  |  |  |  |  |  | 
2 | CC(C)C[C@H](NC(=O)[C@H](Cc1ccc(O)cc1)NC(=O)[C@@H]1CCCN1C(=O)[C@H](CCCNC(=N)N)NC(=O)[C@@H]1CCCN1C(=O)[C@H](CO)NC(=O)[C@H](CCCCN)NC(=O)[C@@H]1CCCN1C(=O)[C@H](CCCNC(=N)N)NC(=O)C1(N)CCCCC1)C(=O)N1CCC[C@H]1C(=O)N[C@@H](CCCNC(=N)N)C(=O)N1CCC[C@H]1C(=O)N[C@@H](CCCNC(=N)N)C(=O)N1CCC[C@H]1C(=O)N1CCC[C@H]1C(=O)N[C@@H](CCCNC(=N)N)C(=O)N1CCC[C@H]1C(=O)N[C@H](C(=O)N[C@@H](CCCNC(=N)N)C(N)=O)C(C)C [Peptide 29] (H-[Ac6c]RPKSPRPYLPRPRPPRPVR-NH2; N-terminus and C-terminus assumed) |  |  | no effect | 74.3 ± 10.1% | ~ 25% | 16 µg/mL (≈ 6.54 µM) | 16 µg/mL | 32 µg/mL | 78.5 ± 3.3% | 
3 | CC(C)[C@H](NC(=O)[C@@H]1CCCN1C(=O)[C@H](CCCNC(=N)N)NC(=O)[C@@H]1CCCN1C(=O)[C@@H]1CCCN1C(=O)[C@H](CCCNC(=N)N)NC(=O)[C@@H]1CCCN1C(=O)[C@H](CCCNC(=N)N)NC(=O)[C@@H]1CCCN1C(=O)[C@H](CCCCN)NC(=O)[C@H](Cc1ccc(O)cc1)NC(=O)[C@@H]1CCCN1C(=O)[C@H](CCCNC(=N)N)NC(=O)[C@@H]1CCCN1C(=O)[C@H](CCCCN)NC(=O)[C@H](CCCCN)NC(=O)[C@@H]1CCCN1C(=O)[C@H](CCCNC(=N)N)NC(=O)C1(N)CCCCC1)C(=O)N[C@@H](CCCNC(=N)N)C(N)=O [Peptide 37] (H-[Ac6c]RPKKPRPYKPRPRPPRPVR-NH2; N-terminus and C-terminus assumed) |  |  |  | 63.4 ± 13.3% | ~ 40% | 16 µg/mL (≈ 6.39 µM) | 16 µg/mL | 64 µg/mL | 56.7 ± 2.6% | 
4 | CC(C)C[C@H](NC(=O)[C@H](Cc1ccc(O)cc1)NC(=O)[C@@H]1CCCN1C(=O)[C@H](CCCNC(=N)N)NC(=O)[C@@H]1CCCN1C(=O)[C@H](CCCCN)NC(=O)[C@H](CCCCN)NC(=O)[C@@H]1CCCN1C(=O)[C@H](CCCNC(=N)N)NC(=O)C1(N)CCCCC1)C(=O)N1CCC[C@H]1C(=O)N[C@@H](Cc1ccccc1)C(=O)N1CCC[C@H]1C(=O)N[C@@H](CCCNC(=N)N)C(=O)N1CCC[C@H]1C(=O)N1CCC[C@H]1C(=O)N[C@@H](CCCNC(=N)N)C(=O)N1CCC[C@H]1C(=O)N[C@H](C(=O)N[C@@H](CCCNC(=N)N)C(N)=O)C(C)C [Peptide 46] (H-[Ac6c]RPKKPRPYLPFPRPPRPVR-NH2; N-terminus and C-terminus assumed) |  |  |  | 96.6 ± 3.1% | did not inhibit GFP expression |  | 16 µg/mL | 64 * µg/mL | 87.1 ± 3.4% | 16 µg/mL (≈ 6.45 µM)
5 | CC(C)C[C@H](NC(=O)[C@H](Cc1ccc(O)cc1)NC(=O)[C@@H]1CCCN1C(=O)[C@H](CCCNC(=N)N)NC(=O)[C@@H]1CCCN1C(=O)[C@H](Cc1ccccc1)NC(=O)[C@H](Cc1ccccc1)NC(=O)[C@@H]1CCCN1C(=O)[C@H](CCCNC(=N)N)NC(=O)C1(N)CCCCC1)C(=O)N[C@@H](CCCCN)C(=O)N[C@@H](CCCNC(=N)N)C(=O)N1CCC[C@H]1C(=O)N[C@@H](CCCNC(=N)N)C(=O)N1CCC[C@H]1C(=O)N1CCC[C@H]1C(=O)N[C@@H](CCCNC(=N)N)C(=O)N1CCC[C@H]1C(=O)N[C@H](C(=O)N[C@@H](CCCNC(=N)N)C(N)=O)C(C)C [Peptide 98] (H-[Ac6c]RPFFPRPYLKRPRPPRPVR-NH2; N-terminus and C-terminus assumed) |  | poor competitor of Cf-ARV-1502 |  | 56.2 ± 2.1% |  | 8 to 16 µg/mL | 8 to 16 µg/mL | 32 µg/mL | 98.3 ± 1.5% | 
6 | CC(C)[C@H](NC(=O)[C@@H]1CCCN1C(=O)[C@H](CCCNC(=N)N)NC(=O)[C@@H]1CCCN1C(=O)[C@@H]1CCCN1C(=O)[C@H](CCCNC(=N)N)NC(=O)[C@@H]1CCCN1C(=O)[C@H](CCCNC(=N)N)NC(=O)[C@@H]1CCCN1C(=O)[C@H](CCCCN)NC(=O)[C@H](CO)NC(=O)[C@@H]1CCCN1C(=O)[C@H](CCCNC(=N)N)NC(=O)[C@@H]1CCCN1C(=O)[C@H](CCCCN)NC(=O)[C@H](CC(=O)O)NC(=O)[C@@H]1CCCN1C(=O)[C@H](CCCNC(=N)N)NC(=O)C1(N)CCCCC1)C(=O)N[C@@H](CCCNC(=N)N)C(N)=O [Peptide 125] (H-[Ac6c]RPDKPRPSKPRPRPPRPVR-NH2; N-terminus and C-terminus assumed) |  |  |  | 104.3 ± 9.3% | slightly improved GFP translation | 128 µg/mL (≈ 53 µM) | 128 µg/mL |  | 86.3 ± 2.5% | 
